Assay results as given in US20240368127A1, “HSD17B13 INHIBITORS AND USES THEREOF” (FL2022-001, Inc., priority 2021, published 2024).

Molecular target: T1, Recombinant human HSD17B13 enzyme (Homo sapiens, UniProt Q7Z5P4)
T1 sequence (Q7Z5P4 20-300): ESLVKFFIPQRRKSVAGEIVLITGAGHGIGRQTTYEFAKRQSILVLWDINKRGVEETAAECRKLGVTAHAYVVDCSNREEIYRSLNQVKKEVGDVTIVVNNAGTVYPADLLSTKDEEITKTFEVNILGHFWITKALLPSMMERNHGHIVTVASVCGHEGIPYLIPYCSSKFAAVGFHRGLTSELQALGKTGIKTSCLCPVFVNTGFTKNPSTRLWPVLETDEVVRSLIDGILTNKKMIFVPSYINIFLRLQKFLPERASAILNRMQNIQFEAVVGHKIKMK
Experiment: HSD17b13 NAD(P)H-Glo biochemical assay
Conditions: 50 μM estradiol, 1 mM NAD+, 37° C. for 3 hours; read-out: HSD17β13 IC50
How it was run: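 Enzyme preincubated with inhibitor 20 min at RT in 20 mM Tris pH7.4, 0.002% Tween-20, 0.02% BSA, then reacted 3 h at 37° C with 50 μM estradiol and 1 mM NAD+ (final). NADH formation read by NAD(P)H-Glo luminescence after 1 h at RT.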

IC50, ≤ 100 nM:
CN1CCN(c2ncc3c(-c4cc(C(F)(F)F)c(F)c(O)c4F)nn(C)c3n2)[C@H](Cc2ccccc2)C1 [Compound 5.26, (R)-3-(6-(2-Benzyl-4-methylpiperazin-1-yl)-1-methyl-1H-pyrazolo[3,4-d]pyrimidin-3-yl)-2,6-difluoro-5-(trifluoromethyl)phenol]
Cn1nc(-c2cc(C(F)(F)F)c(F)c(O)c2F)c2cnc(N3CCOCC3Cc3cccnc3)nc21 (centres unmarked) [Compound 15.07, 2,6-Difluoro-3-(1-methyl-6-(3-(pyridin-3-ylmethyl)morpholino)-1H-pyrazolo[3,4-d]pyrimidin-3-yl)-5-(trifluoromethyl)phenol]
Cc1nn(-c2cc(C(F)(F)F)c(Cl)c(O)c2F)c2cnc(N3CCN(S(C)(=O)=O)C[C@H]3Cc3ccccc3)nc12 [Compound 2.21, (R)-3-(5-(2-Benzyl-4-(methylsulfonyl)piperazin-1-yl)-3-methyl-1H-pyrazolo[4,3-d]pyrimidin-1-yl)-6-chloro-2-fluoro-5-(trifluoromethyl)phenol]
Cn1nc(-c2cc(C(F)(F)F)c(F)c(O)c2F)c2cnc(N3CCCC[C@H]3Cc3ccccc3)nc21 [Compound 5.16, (S)-3-(6-(2-Benzylpiperidin-1-yl)-1-methyl-1H-pyrazolo[3,4-d]pyrimidin-3-yl)-2,6-difluoro-5-(trifluoromethyl)phenol]
Cn1nc(-c2cc(C(F)(F)F)c(F)c(O)c2F)c2cnc(N3CCN(S(C)(=O)=O)[C@H](Cc4ccccc4)C3)nc21 [Compound 5.15, (R)-3-(6-(3-Benzyl-4-(methylsulfonyl)piperazin-1-yl)-1-methyl-1H-pyrazolo[3,4-d]pyrimidin-3-yl)-2,6-difluoro-5-(trifluoromethyl)phenol]
CCn1nc(-c2cc(C(F)(F)F)c(F)c(O)c2F)c2cnc(N3CCOC[C@H]3Cc3ccccc3)nc21 [Compound 15.12, (R)-3-(6-(3-Benzylmorpholino)-1-ethyl-1H-pyrazolo[3,4-d]pyrimidin-3-yl)-2,6-difluoro-5-(trifluoromethyl)phenol]
Cn1nc(-c2cc(C(F)(F)F)c(F)c(O)c2F)c2cnc(N3CCN(S(C)(=O)=O)[C@@H](Cc4ccccc4)C3)nc21 [Compound 5.14, (S)-3-(6-(3-Benzyl-4-(methylsulfonyl)piperazin-1-yl)-1-methyl-1H-pyrazolo[3,4-d]pyrimidin-3-yl)-2,6-difluoro-5-(trifluoromethyl)phenol]
Cn1nc(-c2cc(C(F)(F)F)c(F)c(O)c2F)c2cnc(N3CCC3Cc3ccccc3)nc21 (centres unmarked) [Compound 5.19, 3-(6-(2-Benzylazetidin-1-yl)-1-methyl-1H-pyrazolo[3,4-d]pyrimidin-3-yl)-2,6-difluoro-5-(trifluoromethyl)phenol]
Cn1nc(-c2cc(C(F)(F)F)c(F)c(O)c2F)c2cnc(N3CCOC[C@H]3Cc3ccccc3)nc21 [Compound 5.08, (R)-3-(6-(3-Benzylmorpholino)-1-methyl-1H-pyrazolo[3,4-d]pyrimidin-3-yl)-2,6-difluoro-5-(trifluoromethyl)phenol]
Cc1cc(-c2nn(C)c3nc(N4CCN(S(C)(=O)=O)C[C@H]4Cc4ccccc4)ncc23)c(F)c(O)c1F [Compound 11.08, (R)-3-(6-(2-Benzyl-4-(methylsulfonyl)piperazin-1-yl)-1-methyl-1H-pyrazolo[3,4-d]pyrimidin-3-yl)-2,6-difluoro-5-methylphenol]
Cn1nc(-c2cc(C(F)(F)F)c(F)c(O)c2F)c2cnc(N3CCNC[C@H]3Cc3ccccc3)nc21 [Compound 5.31, (R)-3-(6-(2-Benzylpiperazin-1-yl)-1-methyl-1H-pyrazolo[3,4-d]pyrimidin-3-yl)-2,6-difluoro-5-(trifluoromethyl)phenol]
CS(=O)(=O)N1CCN(c2cc3c(Cl)nn(-c4cc(C(F)(F)F)c(F)c(O)c4F)c3cn2)[C@H](Cc2ccccc2)C1 [Compound 2.20, (R)-3-(5-(2-Benzyl-4-(methylsulfonyl)piperazin-1-yl)-3-chloro-1H-pyrazolo[3,4-c]pyridin-1-yl)-2,6-difluoro-5-(trifluoromethyl)phenol]
COC(=O)[C@@H]1COCCN1c1ncc2c(-c3cc(C(F)(F)F)c(F)c(O)c3F)nn(C)c2n1 [Compound 11.23, Methyl (S)-4-(3-(2,4-difluoro-3-hydroxy-5-(trifluoromethyl)phenyl)-1-methyl-1H-pyrazolo[3,4-d]pyrimidin-6-yl)morpholine-3-carboxylate]
CC(=O)N1CCN(c2ncc3c(-c4cc(C(F)(F)F)c(F)c(O)c4F)nn(C)c3n2)[C@H](Cc2ccccc2)C1 [Compound 6.02, (R)-1-(3-Benzyl-4-(3-(2,4-difluoro-3-hydroxy-5-(trifluoromethyl)phenyl)-1-methyl-1H-pyrazolo[3,4-d]pyrimidin-6-yl)piperazin-1-yl)ethan-1-one]
